Assay results from patent US20080064663A1, “Melt processing of phosphoroamido(di)thioate insecticides” (priority 2006, published 2008).

Test: Processing of acephate melt in oxygen free atmosphere: degradation
Type: physicochemical
Description: In some embodiments, the acephate-containing composition can be processed for more than 30 minutes without substantially any detectable degradation.

## COP(=O)(NC(C)=O)SC (centres unmarked) [acephate]
After processing in molten state at 90° C. to 100° C. for 15 to 30 minutes under an effectively oxygen free atmosphere
  reduction of the acephate stability during storage: without any reduction
Molten state at 90° C. to 100° C. for 15 minutes to 30 minutes under an effectively oxygen free atmosphere
  degradation of the acephate processed in a molten state: without substantial or detectable degradation
